Among the data in ChEMBL document CHEMBL3991601, “The target landscape of clinical kinase drugs” (Science, 2017) are Kd values, retold here.

Active and inactive are the calls of the source.

One may read the Kd as the constant that tells how readily two partners part at equilibrium.

Assay [1] deals with Tyrosine-protein kinase Lyn (Homo sapiens, UniProt P07948).
Assay [2] addresses T1, Tyrosine--tRNA ligase, cytoplasmic (Homo sapiens, UniProt P54577).
T1 sequence (P54577 whole entry): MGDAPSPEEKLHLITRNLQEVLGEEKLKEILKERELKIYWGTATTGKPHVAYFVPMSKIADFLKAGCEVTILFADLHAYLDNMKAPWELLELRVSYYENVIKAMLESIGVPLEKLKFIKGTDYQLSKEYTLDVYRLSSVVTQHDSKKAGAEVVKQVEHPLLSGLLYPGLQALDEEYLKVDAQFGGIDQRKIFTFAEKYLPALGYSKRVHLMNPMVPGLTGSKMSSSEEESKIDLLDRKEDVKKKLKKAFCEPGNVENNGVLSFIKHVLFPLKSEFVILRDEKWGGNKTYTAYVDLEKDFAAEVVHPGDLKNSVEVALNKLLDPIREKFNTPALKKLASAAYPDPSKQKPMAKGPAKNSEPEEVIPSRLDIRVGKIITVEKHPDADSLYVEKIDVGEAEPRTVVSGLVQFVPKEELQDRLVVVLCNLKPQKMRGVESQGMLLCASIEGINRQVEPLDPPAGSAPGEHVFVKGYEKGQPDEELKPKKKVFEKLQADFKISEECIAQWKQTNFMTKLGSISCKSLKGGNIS

The target of assay [3] is Casein kinase II subunit alpha' (Homo sapiens, UniProt P19784).
The target in assay [4] is Actin-related protein 2 (Homo sapiens, UniProt P61160).
Assay [5] concerns the target Serine/threonine-protein kinase N1 (Homo sapiens, UniProt Q16512).
The target of assay [6] is Myosin light chain kinase, smooth muscle (Homo sapiens, UniProt Q15746).
Chain of Myosin light chain kinase, smooth muscle (Q15746 whole entry): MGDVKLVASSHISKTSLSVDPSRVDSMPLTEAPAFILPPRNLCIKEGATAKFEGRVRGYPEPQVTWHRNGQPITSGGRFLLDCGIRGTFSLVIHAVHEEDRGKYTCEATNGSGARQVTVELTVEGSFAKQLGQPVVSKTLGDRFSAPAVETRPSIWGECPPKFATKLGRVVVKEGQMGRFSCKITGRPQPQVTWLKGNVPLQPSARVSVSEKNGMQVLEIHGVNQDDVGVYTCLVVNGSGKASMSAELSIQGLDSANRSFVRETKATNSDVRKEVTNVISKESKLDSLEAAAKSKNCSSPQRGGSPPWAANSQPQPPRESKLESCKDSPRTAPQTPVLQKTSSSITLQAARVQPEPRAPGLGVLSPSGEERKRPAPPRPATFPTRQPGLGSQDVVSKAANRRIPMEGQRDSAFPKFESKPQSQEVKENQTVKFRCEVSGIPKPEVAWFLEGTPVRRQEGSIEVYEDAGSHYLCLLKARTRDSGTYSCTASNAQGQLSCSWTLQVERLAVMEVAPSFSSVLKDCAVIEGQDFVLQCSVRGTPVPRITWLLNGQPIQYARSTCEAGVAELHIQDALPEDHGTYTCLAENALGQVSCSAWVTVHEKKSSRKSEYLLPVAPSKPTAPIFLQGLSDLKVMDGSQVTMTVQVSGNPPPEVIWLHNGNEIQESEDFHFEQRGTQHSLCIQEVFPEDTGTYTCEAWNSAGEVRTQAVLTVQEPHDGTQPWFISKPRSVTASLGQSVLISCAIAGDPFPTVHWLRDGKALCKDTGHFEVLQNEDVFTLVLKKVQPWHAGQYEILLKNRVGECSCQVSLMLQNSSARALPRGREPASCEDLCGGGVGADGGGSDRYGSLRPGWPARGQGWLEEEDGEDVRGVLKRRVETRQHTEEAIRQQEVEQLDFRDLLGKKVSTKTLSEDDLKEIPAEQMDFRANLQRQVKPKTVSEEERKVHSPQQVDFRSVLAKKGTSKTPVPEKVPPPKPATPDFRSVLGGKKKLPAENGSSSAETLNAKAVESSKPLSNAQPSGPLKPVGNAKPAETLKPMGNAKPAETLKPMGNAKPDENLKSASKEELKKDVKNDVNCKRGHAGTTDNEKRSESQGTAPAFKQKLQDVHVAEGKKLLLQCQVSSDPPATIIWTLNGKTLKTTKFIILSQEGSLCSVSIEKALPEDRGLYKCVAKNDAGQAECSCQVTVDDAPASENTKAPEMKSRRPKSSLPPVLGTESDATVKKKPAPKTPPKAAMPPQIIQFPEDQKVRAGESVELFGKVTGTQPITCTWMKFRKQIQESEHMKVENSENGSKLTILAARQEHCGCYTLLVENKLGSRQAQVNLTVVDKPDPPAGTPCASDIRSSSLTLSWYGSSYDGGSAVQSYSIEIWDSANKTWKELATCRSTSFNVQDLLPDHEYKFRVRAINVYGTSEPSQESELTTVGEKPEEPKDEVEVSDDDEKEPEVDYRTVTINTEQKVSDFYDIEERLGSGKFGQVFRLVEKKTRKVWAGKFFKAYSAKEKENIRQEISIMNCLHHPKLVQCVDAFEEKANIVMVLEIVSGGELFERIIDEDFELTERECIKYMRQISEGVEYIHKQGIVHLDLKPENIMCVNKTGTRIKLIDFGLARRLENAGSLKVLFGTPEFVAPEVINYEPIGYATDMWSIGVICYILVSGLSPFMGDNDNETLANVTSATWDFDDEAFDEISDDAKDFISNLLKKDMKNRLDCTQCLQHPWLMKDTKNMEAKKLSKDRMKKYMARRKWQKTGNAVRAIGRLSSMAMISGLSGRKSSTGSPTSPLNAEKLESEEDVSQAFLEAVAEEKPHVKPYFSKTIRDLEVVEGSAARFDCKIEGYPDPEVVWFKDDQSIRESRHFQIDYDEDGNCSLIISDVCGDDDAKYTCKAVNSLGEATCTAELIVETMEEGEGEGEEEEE
Assay [7] addresses Serine/threonine-protein kinase MRCK gamma (Homo sapiens, UniProt Q6DT37).
The target of assay [8] is Protein-tyrosine kinase 6 (Homo sapiens, UniProt Q13882).
In assay [9] the target is T2, Serine/threonine-protein kinase Nek9 (Homo sapiens, UniProt Q8TD19).
T2 sequence (Q8TD19 whole entry): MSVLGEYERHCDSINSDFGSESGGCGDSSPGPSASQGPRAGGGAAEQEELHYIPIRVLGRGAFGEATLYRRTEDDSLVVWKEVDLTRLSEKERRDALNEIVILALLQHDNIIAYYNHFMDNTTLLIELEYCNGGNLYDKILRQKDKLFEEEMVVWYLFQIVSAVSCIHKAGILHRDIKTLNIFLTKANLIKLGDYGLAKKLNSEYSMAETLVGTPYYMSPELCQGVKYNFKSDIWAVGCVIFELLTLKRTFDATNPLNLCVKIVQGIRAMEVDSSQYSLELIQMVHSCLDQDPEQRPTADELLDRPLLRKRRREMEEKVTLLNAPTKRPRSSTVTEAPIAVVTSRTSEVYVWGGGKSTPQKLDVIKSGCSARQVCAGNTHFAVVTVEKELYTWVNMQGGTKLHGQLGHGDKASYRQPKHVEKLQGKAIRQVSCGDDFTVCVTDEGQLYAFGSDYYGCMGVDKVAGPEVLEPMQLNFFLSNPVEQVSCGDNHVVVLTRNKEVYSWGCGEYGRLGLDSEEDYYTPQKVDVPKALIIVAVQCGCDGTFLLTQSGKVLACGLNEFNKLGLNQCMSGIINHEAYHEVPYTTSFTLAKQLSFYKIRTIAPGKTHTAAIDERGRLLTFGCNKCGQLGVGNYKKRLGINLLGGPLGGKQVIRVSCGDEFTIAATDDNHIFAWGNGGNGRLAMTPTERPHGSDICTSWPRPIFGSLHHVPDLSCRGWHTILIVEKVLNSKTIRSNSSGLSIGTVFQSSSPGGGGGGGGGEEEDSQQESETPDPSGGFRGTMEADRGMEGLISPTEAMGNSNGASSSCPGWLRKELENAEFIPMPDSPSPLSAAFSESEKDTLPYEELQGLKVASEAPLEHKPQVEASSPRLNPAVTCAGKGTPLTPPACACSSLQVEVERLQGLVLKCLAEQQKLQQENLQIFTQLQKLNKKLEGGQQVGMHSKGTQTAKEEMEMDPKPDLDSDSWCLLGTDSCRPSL

Assay [10] deals with Calcium/calmodulin-dependent protein kinase kinase 2 (Homo sapiens, UniProt Q96RR4).
Chain of Calcium/calmodulin-dependent protein kinase kinase 2 (Q96RR4 whole entry): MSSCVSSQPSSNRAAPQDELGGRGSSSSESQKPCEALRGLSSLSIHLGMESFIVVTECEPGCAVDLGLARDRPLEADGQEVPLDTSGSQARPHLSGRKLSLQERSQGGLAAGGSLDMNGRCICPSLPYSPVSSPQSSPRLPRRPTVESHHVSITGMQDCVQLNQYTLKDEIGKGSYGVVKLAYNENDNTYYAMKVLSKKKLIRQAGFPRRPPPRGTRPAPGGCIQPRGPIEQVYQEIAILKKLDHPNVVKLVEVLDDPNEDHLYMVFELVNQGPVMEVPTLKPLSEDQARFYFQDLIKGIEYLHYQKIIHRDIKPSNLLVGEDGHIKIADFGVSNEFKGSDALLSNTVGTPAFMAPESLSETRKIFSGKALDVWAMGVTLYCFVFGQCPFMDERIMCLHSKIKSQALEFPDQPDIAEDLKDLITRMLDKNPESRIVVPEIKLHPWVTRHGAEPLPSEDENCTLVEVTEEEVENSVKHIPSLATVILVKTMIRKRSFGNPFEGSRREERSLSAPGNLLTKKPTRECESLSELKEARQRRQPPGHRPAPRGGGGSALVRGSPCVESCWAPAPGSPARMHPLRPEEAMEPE
The target of assay [11] is Serine/threonine-protein kinase pim-1 (Homo sapiens, UniProt P11309).
The target of assay [12] is Tyrosine-protein kinase BTK (Homo sapiens, UniProt Q06187).
Note: in the data inactive means no Kd found up to 30 µM.

Chain of Serine/threonine-protein kinase MRCK gamma (Q6DT37 whole entry): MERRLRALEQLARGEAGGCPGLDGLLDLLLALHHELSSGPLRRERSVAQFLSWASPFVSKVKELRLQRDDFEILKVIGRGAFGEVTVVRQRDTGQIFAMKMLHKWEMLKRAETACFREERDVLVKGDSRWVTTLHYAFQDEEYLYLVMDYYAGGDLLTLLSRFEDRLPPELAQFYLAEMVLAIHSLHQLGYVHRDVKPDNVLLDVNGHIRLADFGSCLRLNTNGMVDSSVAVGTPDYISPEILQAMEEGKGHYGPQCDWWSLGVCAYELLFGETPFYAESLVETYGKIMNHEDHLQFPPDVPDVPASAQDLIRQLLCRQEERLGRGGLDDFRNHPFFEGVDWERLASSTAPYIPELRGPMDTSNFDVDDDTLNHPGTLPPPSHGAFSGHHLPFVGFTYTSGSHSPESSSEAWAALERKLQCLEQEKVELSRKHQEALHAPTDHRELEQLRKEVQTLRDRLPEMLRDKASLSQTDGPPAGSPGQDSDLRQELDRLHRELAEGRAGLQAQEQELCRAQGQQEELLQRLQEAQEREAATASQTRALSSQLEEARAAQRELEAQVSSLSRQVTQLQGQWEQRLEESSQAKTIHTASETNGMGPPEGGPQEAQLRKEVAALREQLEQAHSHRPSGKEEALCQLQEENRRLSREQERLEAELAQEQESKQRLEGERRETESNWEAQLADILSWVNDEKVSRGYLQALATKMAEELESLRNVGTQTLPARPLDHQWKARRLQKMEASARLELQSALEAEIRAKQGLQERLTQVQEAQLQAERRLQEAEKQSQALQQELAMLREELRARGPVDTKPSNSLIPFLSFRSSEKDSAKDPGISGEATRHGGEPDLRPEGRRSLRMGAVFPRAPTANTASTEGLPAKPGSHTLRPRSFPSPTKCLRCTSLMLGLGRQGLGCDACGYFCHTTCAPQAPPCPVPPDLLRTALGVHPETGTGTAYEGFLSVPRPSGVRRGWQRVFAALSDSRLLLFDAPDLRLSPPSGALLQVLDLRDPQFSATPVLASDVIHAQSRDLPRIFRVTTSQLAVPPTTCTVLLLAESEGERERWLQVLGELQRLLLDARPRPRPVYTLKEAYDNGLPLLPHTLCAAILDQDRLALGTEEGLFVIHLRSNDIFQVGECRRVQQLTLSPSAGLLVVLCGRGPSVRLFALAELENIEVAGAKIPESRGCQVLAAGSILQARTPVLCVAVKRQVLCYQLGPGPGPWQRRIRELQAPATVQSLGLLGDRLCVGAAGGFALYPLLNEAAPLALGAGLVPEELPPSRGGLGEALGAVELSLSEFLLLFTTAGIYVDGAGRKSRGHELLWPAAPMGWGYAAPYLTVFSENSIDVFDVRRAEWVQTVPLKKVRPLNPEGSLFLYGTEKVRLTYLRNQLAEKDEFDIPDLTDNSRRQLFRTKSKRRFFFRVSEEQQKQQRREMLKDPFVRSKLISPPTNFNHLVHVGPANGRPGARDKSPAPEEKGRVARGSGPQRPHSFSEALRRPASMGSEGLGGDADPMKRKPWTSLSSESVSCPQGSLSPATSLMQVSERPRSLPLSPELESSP
Chain of Serine/threonine-protein kinase N1 (Q16512 whole entry): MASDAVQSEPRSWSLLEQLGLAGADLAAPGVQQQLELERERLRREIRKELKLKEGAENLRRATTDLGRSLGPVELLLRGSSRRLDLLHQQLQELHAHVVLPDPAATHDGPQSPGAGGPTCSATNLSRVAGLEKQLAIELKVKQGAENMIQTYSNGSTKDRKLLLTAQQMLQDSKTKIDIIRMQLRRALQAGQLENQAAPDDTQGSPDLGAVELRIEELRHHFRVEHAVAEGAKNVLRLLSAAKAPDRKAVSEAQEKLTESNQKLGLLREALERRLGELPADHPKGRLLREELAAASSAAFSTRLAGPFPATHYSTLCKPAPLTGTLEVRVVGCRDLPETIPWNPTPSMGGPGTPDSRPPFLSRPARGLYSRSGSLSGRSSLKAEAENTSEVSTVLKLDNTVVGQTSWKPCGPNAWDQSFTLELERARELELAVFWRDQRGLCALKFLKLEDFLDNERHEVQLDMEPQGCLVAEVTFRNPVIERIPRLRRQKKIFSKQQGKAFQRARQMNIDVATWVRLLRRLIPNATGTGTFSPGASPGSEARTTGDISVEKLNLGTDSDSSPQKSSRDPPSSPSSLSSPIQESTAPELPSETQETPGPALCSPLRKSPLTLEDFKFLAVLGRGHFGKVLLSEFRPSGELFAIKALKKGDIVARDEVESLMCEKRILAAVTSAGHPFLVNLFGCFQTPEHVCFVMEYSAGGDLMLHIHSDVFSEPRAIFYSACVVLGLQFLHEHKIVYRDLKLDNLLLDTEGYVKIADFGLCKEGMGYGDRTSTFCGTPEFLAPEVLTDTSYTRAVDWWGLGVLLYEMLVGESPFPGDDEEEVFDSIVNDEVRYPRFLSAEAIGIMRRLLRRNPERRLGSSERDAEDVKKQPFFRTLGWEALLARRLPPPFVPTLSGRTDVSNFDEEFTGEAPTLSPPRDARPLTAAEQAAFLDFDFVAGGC

In the case of `Cn1c(=O)n(-c2ccc(C(C)(C)C#N)cc2)c2c3cc(-c4cnc5ccccc5c4)ccc3ncc21` [DACTOLISIB], the Kd in assay [1], in assay [2], in assay [3], in assay [4], in assay [5] and in [6] was > 30 µM (inactive) in each case. Besides, the Kd in [7], in assay [8], in assay [9] and in [10] was > 30 µM (inactive) in each case.

As to `C[C@@]1(C(=O)Nc2ccc(F)nc2)CCCN1c1nc(Nc2cc(C3CC3)n[nH]2)c2cccn2n1` [BMS-754807], the Kd in assay [2] and in assay [4] was > 30 µM (inactive) each time.

With `CN(c1ncccc1CNc1nc(Nc2ccc3c(c2)CC(=O)N3)ncc1C(F)(F)F)S(C)(=O)=O` [PF-00562271], the Kd was > 30 µM (inactive) in assay [2]; 0.998 µM (active) in assay [3]; > 30 µM (inactive) in [4]; 7.96 µM (active) in assay [5]; > 30 µM (inactive) in [6]; > 30 µM (inactive) in assay [7]. For the same compound, the Kd in assay [8] and in assay [9] was > 30 µM (inactive) in each case.

With `N#CCNC(=O)c1ccc(-c2ccnc(Nc3ccc(N4CCOCC4)cc3)n2)cc1` [MOMELOTINIB], the Kd in [2] was > 30 µM (inactive); in assay [3], 0.302 µM (active); in [4], > 30 µM (inactive); in [11] it was > 30 µM (inactive); in [5] it was > 30 µM (inactive); in assay [6], > 30 µM (inactive). For the same compound, the Kd in assay [7] was > 30 µM (inactive); in assay [8], > 30 µM (inactive); in [9], 0.474 µM (active); in assay [12] it was > 30 µM (inactive); in assay [10] it was > 30 µM (inactive).

For `COc1cc2c(Oc3ccc4[nH]c(C)cc4c3F)ncnc2cc1OCCCN1CCCC1` [CEDIRANIB], the Kd in [2] was > 30 µM (inactive); in assay [4], > 30 µM (inactive); in assay [8] it was 1.22 µM (active).

Take `Cn1cnc2c(F)c(Nc3ccc(Br)cc3Cl)c(C(=O)NOCCO)cc21` [SELUMETINIB]: the Kd in [2] and in [4] was > 30 µM (inactive) throughout.

Turning to `COc1cc2c(N3CCN(C(=O)Nc4ccc(OC(C)C)cc4)CC3)ncnc2cc1OCCCN1CCCCC1` [TANDUTINIB], the Kd in assay [2] and in [4] was > 30 µM (inactive) throughout.

Turning to `CCN(CCCOc1ccc2c(Nc3cc(CC(=O)Nc4cccc(F)c4)n[nH]3)ncnc2c1)CCOP(=O)(O)O` [BARASERTIB], the Kd in [1] was 3.63 µM (active); in assay [2], > 30 µM (inactive); in [3] it was 1.95 µM; in assay [4] it was > 30 µM (inactive); in [5], > 30 µM (inactive); in [6], > 30 µM (inactive). Further, the Kd in [7], in assay [8] and in [9] was > 30 µM (inactive) throughout.

Regarding `CC1(C)CNc2cc(NC(=O)c3cccnc3NCc3ccncc3)ccc21` [MOTESANIB], the Kd in assay [2] and in [4] was > 30 µM (inactive) throughout.

With `CC(C)(O)CC(=O)NCCn1ccc2ncnc(Nc3ccc(Oc4cccc(C(F)(F)F)c4)c(Cl)c3)c21` [TAK-285], the Kd in assay [1], in [2], in [3], in [4], in assay [11] and in assay [5] was > 30 µM (inactive) each time. The Kd in assay [6], in [7], in assay [8], in assay [9], in assay [12] and in assay [10] was > 30 µM (inactive) in each case.

As for `C=CCn1c(=O)c2cnc(Nc3ccc(N4CCN(C)CC4)cc3)nc2n1-c1cccc(C(C)(C)O)n1` [ADAVOSERTIB], the Kd was > 30 µM (inactive) in assay [1]; > 30 µM (inactive) in [2]; 0.412 µM (active) in assay [3]; > 30 µM (inactive) in assay [4]; > 30 µM (inactive) in [5]; > 30 µM (inactive) in assay [6]. In addition, the Kd in [7], in [8], in assay [9] and in assay [10] was > 30 µM (inactive) each time.

On to `CN(C)C/C=C/C(=O)Nc1cc2c(Nc3ccc(F)c(Cl)c3)ncnc2cc1O[C@H]1CCOC1` [AFATINIB], for which the Kd in assay [2] and in assay [4] was > 30 µM (inactive) in each case.

For `O=S(=O)(c1cccc2cnccc12)N1CCCNCC1` [FASUDIL], the Kd is > 30 µM (inactive) in [1]; > 30 µM (inactive) in [2]; > 30 µM (inactive) in [3]; > 30 µM (inactive) in assay [4]; 0.841 µM (active) in [5]; > 30 µM (inactive) in assay [6]. The Kd in assay [7], in [8], in assay [9] and in assay [10] was > 30 µM (inactive) each time.

Regarding `C[C@]1(O)C[C@@H](c2nc(-c3ccc4ccc(-c5ccccc5)nc4c3)c3c(N)nccn32)C1` [LINSITINIB], the Kd in assay [2], in assay [3], in assay [4], in assay [5], in assay [6] and in [7] was > 30 µM (inactive) each time. The Kd in [9] and in [10] was > 30 µM (inactive) each time.
